The text below walks through data of patent US20210221784A1, “COMPOUNDS AND COMPOSITIONS FOR THE TREATMENT OF PAIN” (Université de Strasbourg, priority 2018, published 2021).

One experiment has as its target T1, hNPFFR1 (Homo sapiens, UniProt Q9GZQ6).
T1 construct: expressed in transfected cells; membranes
The experiment in a line: Radioligand binding competition, membranes from CHO cells expressing hNPFFR1. The following applies: 0.015 nM [D-Tyr1[125I], N-MePhe3]-NPFF, 1 hr at 25° C., read-out: NPFF1-R Ki. The procedure:
(§1) Competition experiments with membranes from CHO cells stably expressing hNPFFR1 and hNPFFR2 were performed essentially as described in Elhabazi, K., et al. Neuropharmacology, 2013. 75C, 164-171., Briefly, hNPFFR1 or hNPFFR2 membranes (5 to 10 μg of proteins) were incubated (1 hr at 25° C.; 0.25 mL total volume) with 0.015 nM [D-Tyr1[125I], N-MePhe3]-NPFF (Hartmann Analytic GmbH) in 50 mM HEPES (pH 7.4), 1 mM CaCl2, 1 mM MgCl2 and 0.1% bovine serum albumin. Non-specific binding was determined in the presence of 10 μM RFRP-3. Incubation was terminated by rapid filtration through a 96-well GF/B unifilter apparatus (Perkin Elmer Life and Analytical Sciences, Courtaboeuf, France). Unifilters were washed five times with binding buffer, then dried for 1 h at 65° C. After addition of 40 μL scintillation cocktail (Microscint-O, Perkin Elmer) per well, bound radioactivity was determined on a TopCount scintillation counter (Perkin Elmer).

For the next experiment, the target named is T2, hNPFFR2 (Homo sapiens, UniProt Q9Y5X5).
T2 construct: expressed in transfected cells; membranes
T2 sequence (Q9Y5X5 whole entry): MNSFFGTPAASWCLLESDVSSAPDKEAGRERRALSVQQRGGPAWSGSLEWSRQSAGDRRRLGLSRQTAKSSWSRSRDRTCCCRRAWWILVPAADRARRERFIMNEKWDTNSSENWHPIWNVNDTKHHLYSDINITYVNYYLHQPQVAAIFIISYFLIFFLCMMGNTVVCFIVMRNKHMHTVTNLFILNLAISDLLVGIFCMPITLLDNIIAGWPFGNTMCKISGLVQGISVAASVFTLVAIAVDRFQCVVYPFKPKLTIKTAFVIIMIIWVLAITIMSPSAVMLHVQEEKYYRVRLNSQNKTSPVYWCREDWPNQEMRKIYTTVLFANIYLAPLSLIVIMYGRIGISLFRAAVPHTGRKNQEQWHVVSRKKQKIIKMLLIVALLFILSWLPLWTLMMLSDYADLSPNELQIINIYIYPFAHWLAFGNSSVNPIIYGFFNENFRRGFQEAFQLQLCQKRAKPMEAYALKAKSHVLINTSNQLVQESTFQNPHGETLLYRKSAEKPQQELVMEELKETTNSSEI
The experiment in a line: Radioligand binding competition, membranes from CHO cells expressing hNPFFR2. The following applies: 0.015 nM [D-Tyr1[125I], N-MePhe3]-NPFF, 1 hr at 25° C., read-out: NPFF2-R Ki. The procedure:
as §1

In experiment [1] the target is T3, human NPFFR1 (hNPFFR1) receptor (Homo sapiens, UniProt Q9GZQ6).
T3 construct: expressed in transfected cells; host or cells: HEK-293 T cells, transient co-transfection
T3 sequence (Q9GZQ6 whole entry): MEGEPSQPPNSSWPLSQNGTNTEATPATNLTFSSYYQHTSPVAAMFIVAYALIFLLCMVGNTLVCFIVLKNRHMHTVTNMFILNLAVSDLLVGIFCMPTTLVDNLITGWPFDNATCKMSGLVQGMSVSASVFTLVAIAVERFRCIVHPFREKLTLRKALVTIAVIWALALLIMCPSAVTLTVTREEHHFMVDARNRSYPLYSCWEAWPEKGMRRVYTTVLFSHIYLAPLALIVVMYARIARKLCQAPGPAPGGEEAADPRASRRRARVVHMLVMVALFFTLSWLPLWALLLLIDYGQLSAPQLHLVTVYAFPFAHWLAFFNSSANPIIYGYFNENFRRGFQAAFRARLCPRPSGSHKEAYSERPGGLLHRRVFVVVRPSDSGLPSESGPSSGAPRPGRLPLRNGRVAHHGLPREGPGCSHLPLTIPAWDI
The experiment in a line: Human NPFFR1 evaluation using BRET biosensors in HEK-293 T cells. It is filed as cell-based. The following applies: hNPFFR1 in HEK-293 T cells, stimulated by EC80 RFRP-3, read-out: IC50 of antagonist activity. The gist of the method:
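HEK-293 T cells transiently co-expressing hNPFFR1, GαoB and a Gi-effector BRET biosensor pair; agonist read after 10 min compound alone, then antagonism after EC80 RFRP-3 for 10 min. IC50 from 20-point curves over 6 logs, duplicates in two independent experiments.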

T1 sequence (Q9GZQ6 whole entry): as above

Take `COc1cc(F)ccc1-c1ccc(N)nc1N` [Compound 2k, 3-(4-fluoro-2-methoxyphenyl) pyridine-2,6-diamine]: the values for the Ki on hNPFFR1 and on hNPFFR2 were 27.6 nM and 3200 nM, respectively. In addition, the half-inhibitory concentration (IC50) in experiment [1] lay in the range of 500 to 1000 nM.

With `Nc1ccc(-c2ccccc2O)c(N)n1` [Compound 2a, 2-(2,6-diaminopyridin-3-yl)phenol], the Ki was 11.8 nM at hNPFFR1 and 1100 nM on hNPFFR2. Also, the concentration for half-maximal inhibition (IC50) in experiment [1] lay within 500 to 1000 nM.

Regarding `CNc1nc(N)ccc1-c1cccc(Cl)c1Cl` [Compound 5a, 3-(2,3-dichlorophenyl)-N2-methylpyridine-2,6-diamine], the Ki worked out at 81.2 nM on hNPFFR1 and 2300 nM on hNPFFR2. Also, in experiment [1], the IC50 is more than 1000 nM.

For `CCc1nc(N)ccc1-c1cccc(Cl)c1Cl` [Compound 6c, 5-(2,3-dichlorophenyl)-6-ethylpyridin-2-amine], the Ki on hNPFFR1 stood at 25 nM; on hNPFFR2, 800 nM. In addition, the half-maximal inhibitory concentration (IC50) in experiment [1] was 500 to 1000 nM.

On to `CCc1nc(N)ccc1-c1ccccc1OC` [Compound 6d, 6-ethyl-5-(2-methoxyphenyl)pyridin-2-amine], for which the inhibition constant Ki on hNPFFR1 came to 15.2 nM; at hNPFFR2, 960 nM. In experiment [1], the IC50 lay within 100 to 500 nM.

For the compound `CCc1ccccc1-c1ccc(N)nc1N` [Compound 1d, 3-(2-ethylphenyl)pyridine-2,6-diamine], the Ki at hNPFFR1 was 6.2 nM; on hNPFFR2, 2000 nM. Moreover, the IC50 in experiment [1] is 100 to 500 nM.

Regarding `CC(C)COc1ccccc1-c1ccc(N)nc1N` [Compound 2g, 3-(2-isobutoxyphenyl) pyridine-2,6-diamine], the figures for the Ki on hNPFFR1 and at hNPFFR2 were 9 nM and 700 nM, respectively. Moreover, the IC50 in experiment [1] was in the range of 100 to 500 nM.

With `Nc1ccc(Cc2ccccc2)c(N)n1` [Compound 10a, 3-benzylpyridine-2,6-diamine], the Ki at hNPFFR1 came out at 76 ± 12 nM; at hNPFFR2, 2800 nM. For the same compound, the IC50 in experiment [1] is more than 1000 nM.

For `Nc1ccc(-c2ccc(Cl)cc2Cl)c(N)n1` [Compound 1k, 3-(2,4-dichlorophenyl) pyridine-2,6-diamine], the figures for the Ki at hNPFFR1 and on hNPFFR2 were 28 nM and 1180 nM, respectively. Moreover, the IC50 in experiment [1] lay in the range of 100 to 500 nM.

For `Nc1ccc(Cc2cccc(Cl)c2)c(N)n1` [Compound 10d, 3-(3-chlorobenzyl)pyridine-2,6-diamine], the Ki is 19 nM at hNPFFR1 and 900 nM on hNPFFR2. Also, in experiment [1], the IC50 was in the range of 500 to 1000 nM.

Turning to `Nc1ccc(-c2ccc(Cl)c(Cl)c2)c(N)n1` [Compound 1n, 3-(3,4-dichlorophenyl) pyridine-2,6-diamine], the Ki on hNPFFR1 stood at 313 nM; at hNPFFR2 it was 2560 nM. Also, in experiment [1], the IC50 is more than 1000 nM.

As for `CCCc1nc(N)ccc1-c1ccccc1OC` [Compound 6g, 5-(2-methoxyphenyl)-6-propylpyridin-2-amine], the figures for the Ki on hNPFFR1 and on hNPFFR2 were 6.3 nM and 470 nM, respectively. In addition, the IC50 in experiment [1] lay within 100 to 500 nM.

Turning to `Nc1ccc(-c2ccccc2C(F)(F)F)c(N)n1` [Compound 1f, 3-(2-(trifluoromethyl)phenyl) pyridine-2,6-diamine], the Ki is 22.4 nM at hNPFFR1 and 6700 nM on hNPFFR2. Further, the IC50 in experiment [1] lay within 500 to 1000 nM.

`Nc1ccc(Cc2ccc(Cl)cc2Cl)c(N)n1` [Compound 10f, 3-(2,4-dichlorobenzyl)pyridine-2,6-diamine]: the inhibitory constant (Ki) on hNPFFR1 is 3.7 nM; at hNPFFR2, 500 nM. The IC50 in experiment [1] is 100 to 500 nM.

Consider `Nc1ccc(-c2ccccc2-c2ccccc2)c(N)n1` [Compound 1r, 3-([1,1′-biphenyl]-2-yl)pyridine-2,6-diamine], for which the values for the Ki on hNPFFR1 and on hNPFFR2 were 20.7 nM and 700 nM, respectively. In experiment [1], the half-inhibitory concentration (IC50) is 100 to 500 nM.

With `Nc1ccc(Cc2ccccc2Cl)c(N)n1` [Compound 10e, 3-(2-chlorobenzyl)pyridine-2,6-diamine], the Ki is 3.7 nM on hNPFFR1 and 450 nM on hNPFFR2. Also, the IC50 in experiment [1] was in the range of 100 to 500 nM.

Regarding `COc1ccc(-c2ccc(N)nc2N)c(OC)c1` [Compound 2m], the Ki at hNPFFR1 amounted to 45.7 nM; on hNPFFR2, 1870 nM. Besides, in experiment [1], the IC50 is more than 1000 nM.

With `CC(C)Nc1nc(N)ccc1-c1cccc(Cl)c1Cl` [Compound 5e, 3-(2,3-dichlorophenyl)-N2-isopropylpyridine-2,6-diamine], the figures for the Ki at hNPFFR1 and at hNPFFR2 were 250 nM and 1900 nM, respectively. Also, the IC50 in experiment [1] was more than 1000 nM.

For `CCCCOc1ccccc1-c1ccc(N)nc1N` [Compound 2e, 3-(2-butoxyphenyl)pyridine-2,6-diamine], the Ki turned out to be 10.5 nM at hNPFFR1 and 1800 nM on hNPFFR2. For the same compound, the concentration for half-maximal inhibition (IC50) in experiment [1] was 100 to 500 nM.

Regarding `Cc1nc(N)ccc1-c1cccc(Cl)c1Cl` [Compound 6b, 5-(2,3-dichlorophenyl)-6-methylpyridin-2-amine], the Ki at hNPFFR1 is 81.4 nM; on hNPFFR2 it was 2000 nM. The IC50 in experiment [1] fell in the range of 500 to 1000 nM.

Turning to `Nc1ccc(-c2cccc(Cl)c2Cl)c(NCc2ccccc2)n1` [Compound 5d, N2-benzyl-3-(2,3-dichlorophenyl)pyridine-2,6-diamine], the figures for the Ki on hNPFFR1 and on hNPFFR2 were 84 nM and 1900 nM, respectively. Further, the IC50 in experiment [1] is more than 1000 nM.

As for `COCc1nc(N)ccc1-c1ccccc1OC` [Compound 6e, 6-(methoxymethyl)-5-(2-methoxyphenyl)pyridin-2-amine], the Ki is 461 nM at hNPFFR1 and 18600 nM at hNPFFR2. For the same compound, in experiment [1], the IC50 is more than 1000 nM.

Regarding `CC(C)c1ccccc1-c1ccc(N)nc1N` [Compound 1e, 3-(2-isopropylphenyl) pyridine-2,6-diamine], the Ki on hNPFFR1 came out at 8 nM; on hNPFFR2, 980 nM. Besides, the 50% inhibitory concentration (IC50) in experiment [1] was 100 to 500 nM.

With `COc1ccccc1-c1ccc(N)nc1C(C)C` [Compound 6h, 6-isopropyl-5-(2-methoxyphenyl)pyridin-2-amine], the Ki on hNPFFR1 is 35.7 nM; on hNPFFR2, 1500 nM. Further, the IC50 in experiment [1] was in the range of 500 to 1000 nM.

In the case of `Nc1ccc(-c2cccc(C(F)(F)F)c2Cl)c(N)n1` [Compound 1p, 3-(2-chloro-3-(trifluoromethyl)phenyl) pyridine-2,6-diamine], the figures for the Ki at hNPFFR1 and at hNPFFR2 were 65 nM and 4600 nM, respectively. Also, in experiment [1], the IC50 lay within 100 to 500 nM.

Take `Cc1ccccc1-c1c(C)cc(N)nc1N` [Compound 8b, 4-methyl-3-(o-tolyl)pyridine-2,6-diamine]: the figures for the Ki at hNPFFR1 and on hNPFFR2 were 183 nM and 4600 nM, respectively. Besides, in experiment [1], the concentration for half-maximal inhibition (IC50) was more than 1000 nM.

`Nc1ccc(Cc2ccc(Cl)cc2)c(N)n1` [Compound 10c, 3-(4-chlorobenzyl)pyridine-2,6-diamine]: the Ki at hNPFFR1 was found to be 56 nM; on hNPFFR2 it was 2700 nM. The IC50 in experiment [1] fell in the range of 500 to 1000 nM.

In the case of `Nc1ccc(-c2ccccc2OC2CCCC2)c(N)n1` [Compound 2i, 3-(2-(cyclopentyloxy)phenyl)pyridine-2,6-diamine], the results for the Ki at hNPFFR1 and at hNPFFR2 were 4 nM and 280 nM, respectively. Moreover, the IC50 in experiment [1] was in the range of 100 to 500 nM.

Take `COc1ccccc1-c1ccc(N)nc1N` [Compound 2b, 3-(2-methoxyphenyl) pyridine-2,6-diamine]: the figures for the Ki on hNPFFR1 and at hNPFFR2 were 13.8 nM and 3000 nM, respectively. Moreover, the IC50 in experiment [1] was in the range of 100 to 500 nM.

Turning to `CCNc1nc(N)ccc1-c1cccc(Cl)c1Cl` [Compound 5b, 3-(2,3-dichlorophenyl)-N2-ethylpyridine-2,6-diamine], the Ki on hNPFFR1 is 79.2 nM; on hNPFFR2, 2200 nM. Moreover, the IC50 in experiment [1] fell in the range of 500 to 1000 nM.

For the compound `COc1cccc(-c2ccc(N)nc2N)c1OC` [Compound 2l, 3-(2,3-dimethoxyphenyl) pyridine-2,6-diamine], the inhibition constant Ki on hNPFFR1 is 26 nM; at hNPFFR2, 900 nM. Moreover, the IC50 in experiment [1] is more than 1000 nM.

Turning to `Nc1ccc(Cc2ccc(F)cc2)c(N)n1` [Compound 10b, 3-(4-fluorobenzyl)pyridine-2,6-diamine], the Ki at hNPFFR1 was found to be 122 nM; on hNPFFR2, 4200 nM. Besides, the IC50 in experiment [1] is more than 1000 nM.

For the compound `CCOc1ccccc1-c1ccc(N)nc1N` [Compound 2d, 3-(2-ethoxyphenyl)pyridine-2,6-diamine], the Ki at hNPFFR1 was determined as 15 nM; at hNPFFR2, 700 nM. The IC50 in experiment [1] lay within 100 to 500 nM.
